Experimental data reported in the NIST ThermoML archive (doi:10.1016/j.jct.2015.03.011).
Values joined by “and” are separate entries in the source; they are usually repeats but may differ in a detail not shown here. Identical values can stand only once.

Conditions: Liquid, Transpiration method

CC(N)CN (stereo unspecified) [1,2-propanediamine]
Conditions	vapor or sublimation pressure [kPa]
273.8 K	0.2726
274.9 K	0.2967
276.6 K	0.3411
277 K	0.3482
279.1 K	0.4011
279.7 K	0.4205
281.3 K	0.4594
282.7 K	0.5281
283.2 K	0.5245
285.3 K	0.6214
285.7 K	0.6306
287.3 K	0.72
288.7 K	0.7897
289.2 K	0.8316
291.2 K	0.9464
291.7 K	0.9537
293.1 K	1.069
294.7 K	1.187
295.2 K	1.234
297.1 K	1.357
297.6 K	1.422
299.1 K	1.559
299.6 K	1.629
301.2 K	1.82
301.7 K	1.84
303.2 K	2.075
303.7 K	2.099
305.7 K	2.354

CC(C)(N)CN [2-methyl-1,2-propanediamine]
Conditions	vapor or sublimation pressure
276 K	0.2878 kPa
276.6 K	0.3031 kPa
277.6 K	0.3267 kPa
278.1 K	0.3442 kPa
279.3 K	0.3687 kPa
280.6 K	0.405 kPa
282.4 K	0.4569 kPa and 0.4785 kPa
283.2 K	0.492 kPa
284.5 K	0.548 kPa and 0.5301 kPa
286 K	0.5853 kPa
288.4 K	0.7053 kPa
290.4 K	0.7971 kPa
292.5 K	0.9233 kPa
294.3 K	1.052 kPa
295.9 K	1.144 kPa
297.2 K	1.299 kPa
299 K	1.422 kPa
300.3 K	1.575 kPa
302 K	1.752 kPa
304.6 K	2.037 kPa
306.1 K	2.247 kPa
307.6 K	2.451 kPa
308.7 K	2.62 kPa
